# Patent publication US20240190856A1, “MELANOCORTIN-4 RECEPTOR AGONIST” (LG CHEM, LTD., priority 2021, published 2024)
# Structures can show the parent of a compound that is named as a salt.
# Experiments:
# [1] = target: T1, MC4R (Homo sapiens, UniProt P32245); test: Binding affinity (125I-NDP-α-MSH displacement, membranes of HEK-293 cells expressing MC4R); parameters: expressed in transfected cells; host or cells: HEK-293 cells, membrane preparation; conditions: 0.02 nM 125I-NDP-α-MSH, 37° C. for two hours, pH 7.0
# Text: Five subtypes of melanocortin receptor (MCR) in vivo are known, and it is known that MC4R, which is Subtype 4, is involved in energy metabolism and weight control. Since other MCR subtypes are involved in the regulation of various functions in vivo such as skin pigmentation, energy homeostasis, and exocrine functions, securing selectivity for MC4R of MC4R agonist compounds is very important in preventing possible side effects in the future. Therefore, the receptor binding abilities of MC4R agonists for each MCR subtype were measured.
# After the CHO-K 1 cell line expressing human recombinant MC1R and the HEK-293 cell lines expressing MC3R, MC4R and MC5R were established, membranes were collected from each cell line. In a 96-well cell culture plate, 3 μg MC1R membrane and 0.04 nM ^125I-NDP-α-MSH per well were reacted at 37° C. for two hours. 3 μg MC3R and MC5R membrane and 0.035 nM ^125I-NDP-α-MSH were reacted at 37° C. for one hour, and […] MC4R membrane and 0.02 nM ^125I-NDP-α-MSH were reacted at 37° C. for two hours. At this time, 25 mM HEPES-KOH adsorption buffer (pH 7.0) containing MCR agonist diluted at each step concentration was added to each well and reacted. The reacted solution was transferred to a filter and washed with an adsorption buffer, and then radioactivity was measured. The value excluding the non-specific binding amount in the presence of 1 μM (MC1R) and 3 μM (MC3R, MC4R, MC5R) of NDP-α-MSH from each total binding amount was used as specific binding amounts of ^125I-NDP-α-MSH. The degree to which the ^125I-NDP-a-MSH specific binding was inhibited by the agonist diluted at each step concentration was measured. IC50 was expressed as the concentration of each agonist that inhibited specific binding of 50% of ^125I-NDP-α-MSH.
# Tables 4-1 and 4-2 show the results of measuring the binding of melanocortin receptors of the compounds obtained by the above experiment in Ki (nM) units.
# Target sequence in this assay (P32245 whole entry): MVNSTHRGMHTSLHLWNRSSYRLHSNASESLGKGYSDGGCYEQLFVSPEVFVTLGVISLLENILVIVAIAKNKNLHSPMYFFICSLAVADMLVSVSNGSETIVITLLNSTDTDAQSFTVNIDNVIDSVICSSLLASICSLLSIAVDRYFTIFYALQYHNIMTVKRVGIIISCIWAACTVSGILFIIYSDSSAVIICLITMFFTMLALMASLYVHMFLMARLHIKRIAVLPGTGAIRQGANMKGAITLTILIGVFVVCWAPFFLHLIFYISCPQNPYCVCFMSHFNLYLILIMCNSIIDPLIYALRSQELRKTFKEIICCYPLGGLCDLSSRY
# [2] = target: T1, MC4R; test: cAMP assay (cAMP Hunter Gs-coupled CHO-K1 cell line); assay type: cell-based; parameters: expressed in transfected cells; host or cells: CHO-K1 (cAMP Hunter Gs-coupled cell line); conditions: CHO-K1 cells overexpressing MC4R, 37° C. for 30 minutes
# Text: The melanocortin receptor is a type of G-protein coupled receptor (GPCR), and the main role of G-protein is to activate secondary transducers to regulate cellular responses to many physiological stimuli through signal transduction. MC4R is a Gs-coupled receptor, and it is known that if MC4R interacts with an agonist, adenylate cyclase (AC) is activated to increase the concentration of cyclic AMP (cAMP), which is one of the secondary transducers in cells. Therefore, it is possible to evaluate the activity of melanocortin receptors by measuring the generation of cAMP signals.
# After cAMP Hunter Gs-coupled cell lines (CHO-K1 cell line) in which each of MC1R, MC3R, MC4R and MC5R was overexpressed were established so that the increase in the cAMP level in cells due to agonist reaction was measurable, the cells were inoculated into each well of a white cell culture plate and incubated for 24 hours in a 37° C. incubator in the presence of 5% CO2. After the incubation, the medium was removed, and 15 μl of a 2:1 HBBS/10 mM HEPES:cAMP XS+Ab reagent was added. After 5 μl of the sample diluted 4 times with buffer was added, the vehicle concentration was set to 1%, and the MC4R agonist compound diluted at each step concentration was added, followed by reaction at 37° C. for 30 minutes. The activity (%) of each agonist compound is expressed as 100% ×(average RLU value of sample'average RLU value of vehicle control)/(average RLU value of max control−average RLU value of vehicle control), and the value was analyzed by CBIS data analysis suite (ChemInnovation, CA).
# Target sequence in this assay (P32245 whole entry, species assumed): as the sequence (P32245 whole entry) above
# [3] = target: T1, MC4R; test: β-arrestin assay (Pathhunter eXpress β-arrestin U2OS cell line); assay type: cell-based; parameters: expressed in transfected cells; host or cells: U2OS (Pathhunter eXpress β-arrestin cell line); conditions: U2OS cells, PK-tagged MC4R and EA-tagged β-arrestin, 37° C. for 90 minutes
# Text: The melanocortin receptor is a type of G-protein coupled receptor (GPCR) and regulates various physiological responses by transducing signals from many neurotransmitters. When GPCR is phosphorylated, β-arrestin is bound to the phosphorylated part of the receptor and plays an important role in activating various signaling pathways in cells through interaction with other proteins. It is known that, when the melanocortin receptor interacts with an agonist, β-arrestin is mobilized and is involved in the β-arrestin-mediated signaling pathway. Therefore, the activity of the melanocortin receptor can be evaluated through the measurement of β-arrestin.
# A Pathhunter eXpress β-arrestin cell line (U2OS cell line) in which Prolink (PK)-tagged MC1R, MC3R, MC4R, MC5R and Enzyme acceptor (EA)-tagged β-arrestin were expressed together was established. When the MCR-PK portion of this cell line is activated, β-arrestin-EA is mobilized, and enzyme acceptor (EA) and Prolink (PK), which are the β-galactosidase enzyme fragments, interact. The activated enzyme hydrolyzes the substrate by β-galactosidase activity to produce a chemiluminescent signal, so that the activity can be measured. After the Pathhunter eXpress β-arrestin cell line (U2OS cell line) was incubated, the cells were inoculated into each well of the cell culture plate and incubated for 48 hours in a 37° C. incubator in the presence of 5% CO2. After the incubation, 5 μl of the sample diluted 5 times with buffer was added, the vehicle concentration was set to 1%, and the MC4R agonist compound diluted at each step concentration was added, followed by reaction at 37° C. for 90 minutes. The activity (%) of each agonist compound is expressed as 100% ×(average RLU value of sample−average RLU value of vehicle control)/(average maximum value of control ligand−average RLU value of vehicle control), and the value was analyzed by CBIS data analysis suite (ChemInnovation, CA).
# Target sequence in this assay (P32245 whole entry, species assumed): as the sequence (P32245 whole entry) above
# Target sequence in this assay (P32121 whole entry partner, species assumed): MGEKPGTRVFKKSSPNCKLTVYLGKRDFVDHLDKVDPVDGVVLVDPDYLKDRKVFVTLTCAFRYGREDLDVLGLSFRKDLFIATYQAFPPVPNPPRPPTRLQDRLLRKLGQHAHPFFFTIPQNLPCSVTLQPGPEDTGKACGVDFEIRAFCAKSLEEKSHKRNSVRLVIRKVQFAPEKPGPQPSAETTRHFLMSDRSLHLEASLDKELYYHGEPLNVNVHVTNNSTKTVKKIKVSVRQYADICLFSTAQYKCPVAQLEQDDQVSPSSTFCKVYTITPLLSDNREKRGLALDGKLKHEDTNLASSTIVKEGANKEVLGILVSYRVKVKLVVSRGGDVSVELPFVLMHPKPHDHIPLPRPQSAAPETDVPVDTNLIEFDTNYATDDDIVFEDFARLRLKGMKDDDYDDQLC
SMILES,Ki ([1]; Table 4-1) [nM],EC50 [2] [nM],EC50 [3] [nM],Ki ([1]; Table 4-2) [nM]
"CC(C)(C)C(=O)N([C@H]1C[C@@H](C(=O)N2CCOCC2)N(C(=O)[C@@H]2CN(C(C)(C)C)C[C@H]2c2ccc(F)cc2F)C1)[C@H]1CC[C@@H](C)CC1 [Example 1, N-((3S,5S)-1-((3S,4R)-1-(tert-butyl)-4-(2,4-difluorophenyl)pyrrolidine-3-carbonyl)-5-(morpholine-4-carbonyl)pyrrolidin-3-yl)-N-((1s,4R)-4-methylcyclohexyl)pivalamide hydrochloride]",74,58.9,8.02,
"CC(C)C(=O)N([C@H]1C[C@@H](C(=O)N2CCOCC2)N(C(=O)[C@@H]2CN(C(C)(C)C)C[C@H]2c2ccc(Cl)cc2F)C1)[C@H]1CC[C@@H](C)CC1 [Example 3, N-((3S,5S)-1-((3S,4R)-1-(tert-butyl)-4-(4-chloro-2-fluorophenyl)pyrrolidine-3-carbonyl)-5-(morpholine-4-carbonyl)pyrrolidin-3-yl)-N-((1s,4R)-4-methylcyclohexyl)isobutyramide hydrochloride]",,49.6,4.5,86
"CC(C)C(=O)N([C@H]1C[C@@H](C(=O)N2CCOCC2)N(C(=O)[C@@H]2CN(C(C)(C)C)C[C@H]2c2ccc(F)cc2F)C1)[C@H]1CC[C@@H](C)CC1 [Example 2, N-((3S,5S)-1-((3S,4R)-1-(tert-butyl)-4-(2,4-difluorophenyl)pyrrolidine-3-carbonyl)-5-(morpholine-4-carbonyl)pyrrolidin-3-yl)-N-((1s,4R)-4-methylcyclohexyl)isobutyramide hydrochloride]",240,59.6,15,

# Further lines, results first:
Ki ([1]; Table 4-1) [nM],EC50 [2] [nM],EC50 [3] [nM],Ki ([1]; Table 4-2) [nM],SMILES
,51.4,13,32,"CC1(C)CCC(N(C(=O)C(C)(C)C)[C@H]2C[C@@H](C(=O)N3CCOCC3)N(C(=O)[C@@H]3CN(C(C)(C)C)C[C@H]3c3ccc(Cl)cc3)C2)CC1 [Example 6, N-((3S,5S)-1-((3S,4R)-1-(tert-butyl)-4-(4-chlorophenyl)pyrrolidine-3-carbonyl)-5-(morpholine-4-carbonyl)pyrrolidin-3-yl)-N-(4,4-dimethylcyclohexyl)pivalamide hydrochloride]"
30,26.2,4.2,,"CC(C)(C)C(=O)N([C@H]1C[C@@H](C(=O)N2CCOCC2)N(C(=O)[C@@H]2CN(C(C)(C)C)C[C@H]2c2ccc(Cl)cc2F)C1)[C@H]1CC[C@@H](C)CC1 [Example 4, N-((3S,5S)-1-((3S,4R)-1-(tert-butyl)-4-(4-chloro-2-fluorophenyl)pyrrolidine-3-carbonyl)-5-(morpholine-4-carbonyl)pyrrolidin-3-yl)-N-((1s,4R)-4-methylcyclohexyl)pivalamide hydrochloride]"
